Measurements: patent US20030180294A1, “Methods of extending corneal graft survival” (priority 2002, published 2003)

Experiments:
[1] = test system: corneal transplants in the Lewis/Wistar-Furth combination; test: rat model of keratoplasty, corneal graft survival; assay type: in vivo; conditions: Lewis cornea to Wistar-Furth recipient, systemic 0.5 to 200 mg/kg/day or eye drop 0.05% to 5.0%, versus vehicle (rejection on average at day 30)
Description: Grafts are prepared and transferred according to the well-characterized rat model of keratoplasty with transplantation of corneas from Lewis strain rats to Wistar-Furth recipients (Callanan et al., Transplantation 45:437-443 (1988)). Each treatment group administered vehicle or test agent includes nine to fourteen rats. Grafts are observed clinically and scored three times per week for signs of rejection according to the criteria in Callanan et al., supra, 1988. Day 60 following surgery represents a two-fold prolongation in the expected mean survival time for corneal transplants in the Lewis/Wistar-Furth combination and therefore is selected as an advantageous time for terminating treatment. Rats bearing grafts not rejected by day 60 are observed for an additional 14 days to determine if the host's immune system has been tolerized. At this time, 80% of the grafted eyes are snap frozen for cryostat sectioning, and the remaining 20% of the eyes are fixed in formalin for H & E staining.
The VEGFR-3 tyrosine kinase inhibitor MAE87, MAE106 or MAZ51 is administered systemically at various concentrations, ranging from 0.5 to 200 mg/kg/day. In other animals, the compound is administered as an eye drop solution in various concentrations ranging from 0.05% to 5.0% and administered as various frequencies (once per day, two times per day and three times per day).

VEGFR-3 = VEGFR-3 (Homo sapiens, UniProt P35916); conditions: VEGF-C and VEGF-D induced; cited from earlier work
Sequence of VEGFR-3 (P35916 25-1363, species assumed): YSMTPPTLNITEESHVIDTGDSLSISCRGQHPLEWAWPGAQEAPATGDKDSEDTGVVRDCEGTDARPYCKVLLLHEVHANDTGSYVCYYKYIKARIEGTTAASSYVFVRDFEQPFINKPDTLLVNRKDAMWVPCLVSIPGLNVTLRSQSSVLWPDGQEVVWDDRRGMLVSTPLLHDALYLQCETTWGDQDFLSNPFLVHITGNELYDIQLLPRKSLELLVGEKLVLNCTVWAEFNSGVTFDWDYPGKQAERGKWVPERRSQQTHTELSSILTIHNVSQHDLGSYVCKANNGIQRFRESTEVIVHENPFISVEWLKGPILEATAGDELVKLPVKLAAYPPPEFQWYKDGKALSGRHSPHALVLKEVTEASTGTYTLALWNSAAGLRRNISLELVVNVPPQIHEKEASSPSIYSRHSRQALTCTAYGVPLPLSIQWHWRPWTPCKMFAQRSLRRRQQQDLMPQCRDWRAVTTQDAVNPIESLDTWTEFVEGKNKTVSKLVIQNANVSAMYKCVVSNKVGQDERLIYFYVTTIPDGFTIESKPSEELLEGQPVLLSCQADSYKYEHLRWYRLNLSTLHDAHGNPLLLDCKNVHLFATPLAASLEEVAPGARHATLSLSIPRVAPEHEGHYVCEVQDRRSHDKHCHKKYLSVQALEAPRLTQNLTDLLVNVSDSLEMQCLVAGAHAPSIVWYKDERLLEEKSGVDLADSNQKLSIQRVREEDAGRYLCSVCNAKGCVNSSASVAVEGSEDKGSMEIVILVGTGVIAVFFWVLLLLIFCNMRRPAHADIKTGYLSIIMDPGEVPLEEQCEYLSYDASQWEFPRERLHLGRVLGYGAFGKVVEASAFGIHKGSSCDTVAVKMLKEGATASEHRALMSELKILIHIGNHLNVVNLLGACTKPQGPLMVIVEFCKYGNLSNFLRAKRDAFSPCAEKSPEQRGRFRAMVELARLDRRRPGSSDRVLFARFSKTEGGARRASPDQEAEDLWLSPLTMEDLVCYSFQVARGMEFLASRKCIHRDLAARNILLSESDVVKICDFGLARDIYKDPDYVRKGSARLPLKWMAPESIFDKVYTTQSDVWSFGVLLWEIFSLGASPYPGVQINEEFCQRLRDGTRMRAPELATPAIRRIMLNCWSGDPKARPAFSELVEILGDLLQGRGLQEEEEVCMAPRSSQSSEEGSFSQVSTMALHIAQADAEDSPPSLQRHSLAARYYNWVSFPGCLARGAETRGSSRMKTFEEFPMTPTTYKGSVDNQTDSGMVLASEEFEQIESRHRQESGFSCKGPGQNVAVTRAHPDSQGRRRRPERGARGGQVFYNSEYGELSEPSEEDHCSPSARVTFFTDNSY

Row | SMILES | mean graft survival (delay in evidence of graft rejection) [1] | VEGFR-3 kinase activity versus VEGFR-2 (specificity) (VEGFR-3)
1 | COc1ccc(C=C2C(=O)Nc3ccccc32)cc1F [MAE106, 3-(3-fluoro-4-methoxy-benzylidene)-1,3-dihydro-indol-2-one] | increased mean graft survival | differentially block VEGF-C and VEGF-D induced VEGFR-3 kinase activity compared to that of VEGFR-2
2 | CN(C)c1ccc(C=C2C(=O)Nc3ccccc32)c2ccccc12 [MAZ51, 3-(4-dimethylamino-naphthalen-1-ylmethylene)-1,3-dihydro-indol-2-one] | increased mean graft survival | differentially block VEGF-C and VEGF-D induced VEGFR-3 kinase activity compared to that of VEGFR-2
3 | O=C1Nc2ccccc2C1=Cc1ccc(O)cc1O [MAE87, 3(2,4-dihydroxy-benzylidene)-1,3-dihydro-indol-2-one] | increased mean graft survival | 
